According to US8889878B2, “Haloalky-substituted amides as insecticides and acaricides” (Bayer CropScience AG, priority 2009, dated 2014):

Legend:
[1] = test system: green peach aphid (Myzus persicae); experiment: Myzus test (MYZUPE spray treatment), Example 17; assay type: in vivo; conditions: china cabbage leaf discs sprayed, after 6 days
Description: Myzus Test (MYZUPE Spray Treatment)
• Solvent: 78 parts by weight of acetone • 1.5 parts by weight of dimethylformamide • Emulsifier: 0.5 part by weight of alkylaryl polyglycol ether
To prepare an appropriate active ingredient formulation, 1 part by weight of active ingredient is mixed with the stated amounts of solvent and emulsifier, and the concentrate is diluted with emulsifier-containing water to the desired concentration. Leaf discs from china cabbage (Brassica pekinensis) infested by all stages of the green peach aphid (Myzus persicae) are sprayed with an active ingredient formulation of the desired concentration.
After 6 days, the efficacy in % is determined. 100% means that all aphids were killed; 0% means that no aphids were killed.

[2] = logP by HPLC on reverse-phase column (EEC Directive 79/831 Annex V.A8); assay type: physicochemical
Description: The logP values reported in the above Tables and Preparation Examples were determined according to EEC Directive 79/831 Annex V.A8 by HPLC (High Performance Liquid Chromatography) on a reverse-phase column (C18). Temperature 43° C.

[3] = test system: armyworm (Spodoptera frugiperda); experiment: Spodoptera frugiperda test (SPODFR spray treatment), Example 15; assay type: in vivo; conditions: maize leaf discs sprayed, after 7 days
Description: Spodoptera frugiperda Test (SPODFR Spray Treatment)
(§1) • Solvent: 78.0 parts by weight of acetone • 1.5 parts by weight of dimethylformamide • Emulsifier: 0.5 part by weight of alkylaryl polyglycol ether
(§2) To prepare an appropriate active ingredient formulation, 1 part by weight of active ingredient is mixed with the stated amounts of solvent and emulsifier, and the concentrate is diluted with emulsifier-containing water to the desired concentration. Leaf discs from maize (Zea mays) are sprayed with an active ingredient formulation of the desired concentration and, after drying, populated with caterpillars of the armyworm (Spodoptera frugiperda).
After 7 days, the efficacy in % is determined. 100% means that all caterpillars were killed; 0% means that no caterpillars were killed.

[4] = test system: mustard beetle (Phaedon cochleariae); experiment: Phaedon test (PHAECO spray treatment), Example 7; assay type: in vivo; conditions: application rate 20 g/ha, china cabbage leaf discs sprayed, after 7 days
Description: Phaedon Test (PHAECO Spray Treatment)
as §1
as §2, with “an” for “an appropriate”, “china cabbage (Brassica pekinensis)” for “maize (Zea mays)”, “larvae” for “caterpillars”, “mustard beetle (Phaedon cochleariae).” for “armyworm (Spodoptera frugiperda).”
After 7 days, the efficacy in % is determined. 100% means that all beetle larvae were killed; 0% means that no beetle larvae were killed.

[5] = HPLC-MS, HPLC on reverse-phase column
[6] = HPLC, C18 reverse phase, 43° C., acidic range pH 2.7, calibration with alkan-2-ones

SMILES	efficacy in % ([1]; application rate 100 g/ha) [%]	logP ([2]; HPLC-MS)	efficacy in % [4] [%]	also measured
CN(C)NC(=O)c1ccc(/C=C/C(=O)NC(c2cccc(C(F)(F)F)c2)C(F)(F)F)cc1C(F)(F)F (stereo not shown) [Ia-131]	100	HPLC-MS: logP = 3.05; mass		efficacy in % ([3]; application rate 100 g/ha): 100%
O=C(/C=C/c1ccc(C(=O)NC2CC2)c(C(F)(F)F)c1)NC(c1ccc(F)c(C(F)(F)F)c1)C(F)(F)F (stereo not shown) [Ia-280]	100			logP [2, 5]: HPLC-MS: logP = 3.46; mass; efficacy in % ([3]; application rate 100 g/ha): 100%
O=C(NC(c1cccc(C(F)(F)F)c1)C(F)(F)F)c1cc2cc(C(=O)NCc3ccccn3)c(Cl)cc2[nH]1 (racemic) [Ic-23]			100	logP [2, 6]: HPLC-MS: logP = 2.49; mass
O=C(/C=C/c1ccc(C(=O)Nc2ncccn2)c(Cl)c1)NC(c1cccc(C(F)(F)F)c1)C(F)(F)F (racemic) [Ia-197]	90	HPLC-MS: logP = 2.95; mass		
CC(C)NC(=O)c1ccc(/C=C/C(=O)NC(c2cccc(C(F)(F)F)c2)C(F)(F)F)cc1Br (stereo not shown) [Ia-174]	100	HPLC-MS: logP = 3.48; mass		
CC(=O)N(Cc1ccccn1)Cc1ccc(/C=C/C(=O)NC(c2cccc(C(F)(F)F)c2)C(F)(F)F)cc1F (stereo not shown) [Ia-252]	100	HPLC-MS: logP = 2.72; mass		efficacy in % ([3]; application rate 100 g/ha): 100%
O=C(/C=C/c1ccc(C(=O)Nc2ccccn2)c(Cl)c1)NC(c1cccc(C(F)(F)F)c1)C(F)(F)F (stereo not shown) [Ia-98]		HPLC-MS: logP = 3.47 mass	100	
O=C(/C=C/c1ccc(C(=O)NC2CCC2)c(Br)c1)NC(c1cccc(C(F)(F)F)c1)C(F)(F)F (stereo not shown) [Ia-179]	90	HPLC-MS: logP = 3.61; mass		efficacy in % ([3]; application rate 100 g/ha): 83%
O=C(/C=C/c1ccc(C(=O)NC2CC2)c(C(F)(F)F)c1)NC(c1ccc(F)c(Cl)c1)C(F)(F)F (stereo not shown) [Ia-279]	100			logP [2, 5]: HPLC-MS: logP = 3.33; mass; efficacy in % ([3]; application rate 100 g/ha): 100%
Cc1cc(/C=C/C(=O)NC(c2cccc(C(F)(F)F)c2)C(F)(F)F)ccc1C(=O)NC1CCC1 (stereo not shown) [Ia-101]		HPLC-MS: logP = 3.53 mass	100	
CN(C(=O)c1ccc(/C=C/C(=O)NC(c2cccc(C(F)(F)F)c2)C(F)(F)F)cc1Br)c1ccccn1 (stereo not shown) [Ia-89]		HPLC-MS: logP = 3.47 mass	100	
O=C(/C=C/c1ccc(C(=O)Nc2ccc(Cl)cn2)c(Cl)c1)NC(c1cccc(C(F)(F)F)c1)C(F)(F)F (stereo not shown) [Ia-168]	80	HPLC-MS: logP = 4.28; mass		efficacy in % ([3]; application rate 100 g/ha): 100%
O=C(/C=C/c1ccc(C(=O)NC2CCOCC2)c(Cl)c1)NC(c1cccc(C(F)(F)F)c1)C(F)(F)F (stereo not shown) [Ia-97]		HPLC-MS: logP = 2.99 mass	100	
CC(F)(F)CNC(=O)c1ccc(/C=C/C(=O)NC(c2cccc(C(F)(F)F)c2)C(F)(F)F)cc1Cl (stereo not shown) [Ia-111]		HPLC-MS: logP = 3.37 mass	100	
O=C(/C=C/c1ccc(C(=O)NC2CC2)c(C(F)(F)F)c1)NC(c1ccc(Cl)c(Cl)c1)C(F)(F)F (stereo not shown) [Ia-37]		HPLC-MS: logP = 3.41; mass	100	
CCC(=O)NCc1ccc(/C=C/C(=O)NC(c2ccc(F)c(C(F)(F)F)c2)C(F)(F)F)cc1 (stereo not shown) [Ia-282]	90			logP [2, 5]: HPLC-MS: logP = 3.11; mass; efficacy in % ([3]; application rate 100 g/ha): 100%
C/C(=C\C(=O)NC(c1cccc(C(F)(F)F)c1)C(F)(F)F)c1ccc(C(=O)NC(C)C)c(C(F)(F)F)c1 (stereo not shown) [Id-4]	90			logP [2, 6]: HPLC-MS: logP = 3.75; mass
CC(=O)N(Cc1ccc(/C=C/C(=O)NC(c2cccc(C(F)(F)F)c2)C(F)(F)F)cc1)Cc1ccccn1 (stereo not shown) [Ia-254]	80	HPLC-MS: logP = 2.65; mass		
O=C(/C=C/c1ccc(C(=O)NC2CC2c2ccccc2)c(C(F)(F)F)c1)NC(c1cccc(C(F)(F)F)c1)C(F)(F)F (stereo not shown) [Ia-71]		HPLC-MS: logP = 4.22; mass	100	
O=C(/C=C/c1ccc(C(=O)NC2CC2)c(C(F)(F)F)c1)NC(c1cccc(SC(F)(F)F)c1)C(F)(F)F (stereo not shown) [Ia-256]	100	HPLC-MS: logP = 3.51; mass		efficacy in % ([3]; application rate 100 g/ha): 100%
CC(C)ONC(=O)c1ccc(/C=C/C(=O)NC(c2cccc(C(F)(F)F)c2)C(F)(F)F)cc1Cl (racemic) [Ia-194]	90	HPLC-MS: logP = 3.29; mass		

SMILES	efficacy in % ([1]; application rate 100 g/ha) [%]	logP ([2]; HPLC-MS)	efficacy in % [4] [%]	also measured
O=C(NCc1ccc2oc(C(=O)NC(c3cccc(C(F)(F)F)c3)C(F)(F)F)cc2c1)c1ccccn1 (stereo not shown) [Ic-12]				efficacy in % ([1]; application rate 500 g/ha): 80%; logP [2, 6]: HPLC-MS: logP = 3.62; mass
C#CCNC(=O)c1ccc(/C=C/C(=O)NC(c2cccc(C(F)(F)F)c2)C(F)(F)F)cc1Br (stereo not shown) [Ia-105]		HPLC-MS: logP = 3.09 mass	100	
O=C(/C=C/c1ccc(C(=O)NCC(=O)NCC(F)(F)F)c(Cl)c1)NC(c1cccc(C(F)(F)F)c1)C(F)(F)F (stereo not shown) [Ia-107]		HPLC-MS: logP = 2.99 mass	100	
O=C(/C=C/c1ccc(C(=O)Nc2ccncc2)c(C(F)(F)F)c1)NC(c1cccc(C(F)(F)F)c1)C(F)(F)F (stereo not shown) [Ia-84]		HPLC-MS: logP = 1.99 mass	100	
CC(C#N)NC(=O)c1ccc(/C=C/C(=O)NC(c2cccc(C(F)(F)F)c2)C(F)(F)F)cc1Cl (stereo not shown) [Ia-160]	100	HPLC-MS: logP = 3.23; mass		
O=C(/C=C/c1ccc(C(=O)NCc2ccco2)c(C(F)(F)F)c1)NC(c1cccc(C(F)(F)F)c1)C(F)(F)F (stereo not shown) [Ia-169]	100	HPLC-MS: logP = 3.63; mass		
O=C(/C=C/c1ccc(C(=O)Nc2ccncn2)c(Cl)c1)NC(c1cccc(C(F)(F)F)c1)C(F)(F)F (stereo not shown) [Ia-184]	100	HPLC-MS: logP = 3.22; mass		
O=C(NC(c1ccc(Cl)c(Cl)c1)C(F)(F)F)c1cc2cc(Cl)c(C(=O)NC3CC3)cc2[nH]1 (stereo not shown) [Ic-21]			100	logP [2, 6]: HPLC-MS: logP = 3.28; mass
COC(=O)N(C)NC(=O)c1ccc(/C=C/C(=O)NC(c2cccc(C(F)(F)F)c2)C(F)(F)F)cc1Br (stereo not shown) [Ia-103]		HPLC-MS: logP = 2.89 mass	100	
O=C(/C=C/c1ccc(C(=O)Nc2ccncc2)c(Br)c1)NC(c1cccc(C(F)(F)F)c1)C(F)(F)F (stereo not shown) [Ia-91]		HPLC-MS: logP = 1.96 mass	100	
CCNC(=O)c1ccc(/C=C/C(=O)NC(c2cccc(C(F)(F)F)c2)C(F)(F)F)cc1C(F)(F)F (stereo not shown) [Ia-64]		HPLC-MS: logP = 3.18; mass	100	efficacy in % ([3]; application rate 500 g/ha): 83%
O=C(/C=C/c1ccc(C(=O)NC2CCCNC2=O)c(Cl)c1)NC(c1cccc(C(F)(F)F)c1)C(F)(F)F (stereo not shown) [Ia-106]		HPLC-MS: logP = 2.61 mass	100	
Cc1cc(/C=C/C(=O)NC(c2cccc(C(F)(F)F)c2)C(F)(F)F)ccc1C(=O)NCc1ccc(F)cn1 (stereo not shown) [Ia-87]		HPLC-MS: logP = 3.13 mass	100	
O=C(/C=C/c1ccc(C(=O)NCC2CC2)c(Br)c1)NC(c1cccc(C(F)(F)F)c1)C(F)(F)F (stereo not shown) [Ia-180]	90	HPLC-MS: logP = 3.55; mass		
O=C(NC(c1cc(Cl)cc(C(F)(F)F)c1)C(F)(F)F)c1cc2cc(Cl)c(C(=O)NC3CC3)cc2[nH]1 (stereo not shown) [Ic-20]			100	logP [2, 6]: HPLC-MS: logP = 3.47; mass
O=C(NC(c1cc(Cl)cc(Cl)c1)C(F)(F)F)c1cc2ccc(C(=O)NC3CC3)c(Cl)c2[nH]1 (racemic) [Ic-22]			100	logP [2, 6]: HPLC-MS: logP = 3.42; mass
Cc1cc(/C=C/C(=O)NC(c2cccc(C(F)(F)F)c2)C(F)(F)F)ccc1C(=O)NC1CCOCC1 (stereo not shown) [Ia-86]		HPLC-MS: logP = 2.89 mass	100	
O=C(/C=C/c1ccc(C(=O)NCC(F)F)c(Br)c1)NC(c1cccc(C(F)(F)F)c1)C(F)(F)F (stereo not shown) [Ia-104]		HPLC-MS: logP = 3.23 mass	100	
CCn1c(C(=O)NC(c2cccc(C(F)(F)F)c2)C(F)(F)F)cc2cc(C(=O)NC3CC3)c(Cl)cc21 (racemic) [Ic-26]	100			efficacy in % ([3]; application rate 100 g/ha): 100%
CC(NC(=O)c1ccc(C=CC(=O)NC(c2cccc(C(F)(F)F)c2)C(F)(F)F)cc1Cl)c1nccs1 (mixture of isomers) [Ia-187]	80	HPLC-MS: logP = 3.4; mass		
